Measurements: ChEMBL document CHEMBL1255382, “Genetic mapping of targets mediating differential chemical phenotypes in Plasmodium falciparum” (Nat Chem Biol, 2009)
Counter-ions that a name gives are not always drawn.

How the values were obtained:
[1] = tested on: Plasmodium falciparum; assay: microbe, parasite or virus in culture; type: functional, organism-based; conditions: 3D7, 72 h
Description: Antiplasmodial activity against Plasmodium falciparum 3D7 after 72 hrs by SYBR green assay

[2] = tested on: Plasmodium falciparum; assay: microbe, parasite or virus in culture; type: functional, organism-based; conditions: 7G8, 72 h
Description: Antiplasmodial activity against Plasmodium falciparum 7G8 after 72 hrs by SYBR green assay

[3] = tested on: Plasmodium falciparum; assay: microbe, parasite or virus in culture; type: functional, organism-based; conditions: GB4, 72 h
Description: Antiplasmodial activity against Plasmodium falciparum GB4 after 72 hrs by SYBR green assay

[4] = tested on: Plasmodium falciparum; assay: microbe, parasite or virus in culture; type: functional, organism-based, W2; conditions: for IC50: Plasmodium falciparum, W2, 72 h
Description: Antiplasmodial activity against Plasmodium falciparum W2 after 72 hrs by SYBR green assay

[5] = tested on: Plasmodium falciparum; assay: microbe, parasite or virus in culture; conditions: D10, 72 h
Description: Antiplasmodial activity against Plasmodium falciparum D10 after 72 hrs by SYBR green assay

[6] = tested on: Plasmodium falciparum; assay: microbe, parasite or virus in culture; conditions: Dd2, 72 h
Description: Antiplasmodial activity against Plasmodium falciparum Dd2 after 72 hrs by SYBR green assay

[7] = tested on: Plasmodium falciparum; assay: microbe, parasite or virus in culture; conditions: HB3, 72 h
Description: Antiplasmodial activity against Plasmodium falciparum HB3 after 72 hrs by SYBR green assay

[8] = tested on: Plasmodium falciparum; assay: Antiplasmodial activity against Plasmodium falciparum CDY harboring modified mdr1 protein after 72 hrs by SYBR green assay in presence of 0.8 uM P-gp inhibitor verapamil; type: functional, organism-based; conditions: MDR1, 72 h
[9] = tested on: Plasmodium falciparum
Description: (§1) Antiplasmodial activity against Plasmodium falciparum XF12 after 72 hrs by SYBR green assay

[10] = tested on: Plasmodium falciparum; assay: microbe, parasite or virus in culture; conditions: Dd2, 72 h; remark: listed apart in the source
Description: Antiplasmodial activity against transgenic Plasmodium falciparum Dd2 pDT harboring polymorphic DHFR after 72 hrs by SYBR green assay

[11] = tested on: Plasmodium falciparum; assay: microbe, parasite or virus in culture; conditions: HB3 pDT, 72 h
Description: Antiplasmodial activity against transgenic Plasmodium falciparum HB3 pDT harboring polymorphic DHFR after 72 hrs by SYBR green assay

[12] = tested on: Plasmodium falciparum; assay: microbe, parasite or virus in culture; conditions: Dd2, 72 h; remark: listed apart in the source
Description: Antiplasmodial activity against Plasmodium falciparum Dd2 harboring polymorphic DHFR after 72 hrs by SYBR green assay

[13] = tested on: Plasmodium falciparum; assay: microbe, parasite or virus in culture; conditions: W2, 72 h
Description: Antiplasmodial activity against Plasmodium falciparum W2 harboring polymorphic DHFR after 72 hrs by SYBR green assay

[14] = tested on: Plasmodium falciparum; assay: microbe, parasite or virus in culture; conditions: 7G8, 72 h
Description: Antiplasmodial activity against Plasmodium falciparum 7G8 harboring polymorphic DHFR after 72 hrs by SYBR green assay

[15] = tested on: Plasmodium falciparum; assay: microbe, parasite or virus in culture; conditions: D10, 72 h; remark: listed apart in the source
Description: Antiplasmodial activity against Plasmodium falciparum D10 harboring polymorphic DHFR after 72 hrs by SYBR green assay

[16] = tested on: Plasmodium falciparum; assay: microbe, parasite or virus in culture; conditions: HB3, 72 h; remark: listed apart in the source
Description: Antiplasmodial activity against Plasmodium falciparum HB3 harboring polymorphic DHFR after 72 hrs by SYBR green assay

[17] = tested on: Plasmodium falciparum; assay: microbe, parasite or virus in culture; conditions: JC3, 72 h
Description: Antiplasmodial activity against Plasmodium falciparum JC3 after 72 hrs by SYBR green assay

[18] = tested on: Plasmodium falciparum; assay: microbe, parasite or virus in culture; conditions: JF11, 72 h
Description: Antiplasmodial activity against Plasmodium falciparum JF11 after 72 hrs by SYBR green assay

[19] = tested on: Plasmodium falciparum; assay: microbe, parasite or virus in culture; conditions: XG10, 72 h
Description: Antiplasmodial activity against Plasmodium falciparum XG10 after 72 hrs by SYBR green assay

[20] = tested on: Plasmodium falciparum; assay: microbe, parasite or virus in culture; conditions: KC2, 72 h
Description: Antiplasmodial activity against Plasmodium falciparum KC2 after 72 hrs by SYBR green assay

[21] = tested on: Plasmodium falciparum; assay: microbe, parasite or virus in culture; conditions: WE2, 72 h
Description: Antiplasmodial activity against Plasmodium falciparum WE2 after 72 hrs by SYBR green assay

[22] = tested on: Plasmodium falciparum; assay: microbe, parasite or virus in culture; conditions: DEV, 72 h
Description: Antiplasmodial activity against Plasmodium falciparum DEV after 72 hrs by SYBR green assay

[23] = tested on: Plasmodium falciparum; assay: microbe, parasite or virus in culture; conditions: GB4, 72 h
Description: Antiplasmodial activity against Plasmodium falciparum GB4 harboring polymorphic DHFR after 72 hrs by SYBR green assay

[24] = tested on: Plasmodium falciparum; assay: microbe, parasite or virus in culture; conditions: KB8, 72 h
Description: Antiplasmodial activity against Plasmodium falciparum KB8 after 72 hrs by SYBR green assay

[25] = tested on: Plasmodium falciparum; assay: microbe, parasite or virus in culture; conditions: KC5, 72 h
Description: Antiplasmodial activity against Plasmodium falciparum KC5 after 72 hrs by SYBR green assay

[26] = tested on: Plasmodium falciparum; assay: microbe, parasite or virus in culture; conditions: XD8, 72 h
Description: Antiplasmodial activity against Plasmodium falciparum XD8 after 72 hrs by SYBR green assay

[27] = tested on: Plasmodium falciparum; assay: microbe, parasite or virus in culture; conditions: XB3, 72 h
Description: Antiplasmodial activity against Plasmodium falciparum XB3 after 72 hrs by SYBR green assay

[28] = tested on: Plasmodium falciparum; assay: microbe, parasite or virus in culture; conditions: JC9, 72 h
Description: Antiplasmodial activity against Plasmodium falciparum JC9 after 72 hrs by SYBR green assay

[29] = tested on: Plasmodium falciparum; assay: microbe, parasite or virus in culture; conditions: AUD, 72 h
Description: Antiplasmodial activity against Plasmodium falciparum AUD after 72 hrs by SYBR green assay

[30] = tested on: Plasmodium falciparum; assay: microbe, parasite or virus in culture; conditions: AL2, 72 h
Description: Antiplasmodial activity against Plasmodium falciparum AL2 after 72 hrs by SYBR green assay

[31] = tested on: Plasmodium falciparum; assay: microbe, parasite or virus in culture; conditions: TF1, 72 h
Description: Antiplasmodial activity against Plasmodium falciparum TF1 after 72 hrs by SYBR green assay

[32] = tested on: Plasmodium falciparum; assay: microbe, parasite or virus in culture; conditions: KH7, 72 h
Description: Antiplasmodial activity against Plasmodium falciparum KH7 after 72 hrs by SYBR green assay

[33] = tested on: Plasmodium falciparum; assay: microbe, parasite or virus in culture; conditions: NIC, 72 h
Description: Antiplasmodial activity against Plasmodium falciparum NIC after 72 hrs by SYBR green assay

[34] = tested on: Plasmodium falciparum; assay: microbe, parasite or virus in culture; conditions: JB12, 72 h
Description: Antiplasmodial activity against Plasmodium falciparum JB12 after 72 hrs by SYBR green assay

[35] = tested on: Plasmodium falciparum; assay: microbe, parasite or virus in culture; conditions: D2, 72 h
Description: Antiplasmodial activity against Plasmodium falciparum D2 after 72 hrs by SYBR green assay

[36] = tested on: Plasmodium falciparum; assay: microbe, parasite or virus in culture; conditions: XE7, 72 h
Description: Antiplasmodial activity against Plasmodium falciparum XE7 after 72 hrs by SYBR green assay

[37] = tested on: Plasmodium falciparum; assay: microbe, parasite or virus in culture; conditions: LC12, 72 h
Description: Antiplasmodial activity against Plasmodium falciparum LC12 after 72 hrs by SYBR green assay

[38] = tested on: Plasmodium falciparum; assay: microbe, parasite or virus in culture; conditions: JH6, 72 h
Description: Antiplasmodial activity against Plasmodium falciparum JH6 after 72 hrs by SYBR green assay

[39] = tested on: Plasmodium falciparum; assay: microbe, parasite or virus in culture; conditions: LA10, 72 h
Description: Antiplasmodial activity against Plasmodium falciparum LA10 after 72 hrs by SYBR green assay

[40] = tested on: Plasmodium falciparum; assay: microbe, parasite or virus in culture; conditions: KA6, 72 h
Description: Antiplasmodial activity against Plasmodium falciparum KA6 after 72 hrs by SYBR green assay

[41] = tested on: Plasmodium falciparum; assay: microbe, parasite or virus in culture; conditions: JON, 72 h
Description: Antiplasmodial activity against Plasmodium falciparum JON after 72 hrs by SYBR green assay

[42] = tested on: Plasmodium falciparum; assay: microbe, parasite or virus in culture; conditions: NF10, 72 h
Description: Antiplasmodial activity against Plasmodium falciparum NF10 after 72 hrs by SYBR green assay

[43] = tested on: Plasmodium falciparum; assay: microbe, parasite or virus in culture; conditions: QF5, 72 h
Description: Antiplasmodial activity against Plasmodium falciparum QF5 after 72 hrs by SYBR green assay

[44] = tested on: Plasmodium falciparum; assay: microbe, parasite or virus in culture; conditions: WF12, 72 h
Description: Antiplasmodial activity against Plasmodium falciparum WF12 after 72 hrs by SYBR green assay

[45] = tested on: Plasmodium falciparum; assay: microbe, parasite or virus in culture; conditions: XF12, 72 h
Description: as §1

[46] = tested on: Plasmodium falciparum; assay: microbe, parasite or virus in culture; conditions: DAN, 72 h
Description: Antiplasmodial activity against Plasmodium falciparum DAN after 72 hrs by SYBR green assay

[47] = tested on: Plasmodium falciparum; assay: microbe, parasite or virus in culture; conditions: JB8, 72 h
Description: Antiplasmodial activity against Plasmodium falciparum JB8 after 72 hrs by SYBR green assay

[48] = tested on: Plasmodium falciparum; assay: microbe, parasite or virus in culture; conditions: WC4, 72 h
Description: Antiplasmodial activity against Plasmodium falciparum WC4 after 72 hrs by SYBR green assay

Structure (SMILES): CC[C@@]1(O)C(=O)OCc2c1cc1n(c2=O)Cc2cc3ccccc3nc2-1 [CAMPTOTHECIN]
- IC50 [1]: 0.83 µM
- IC50 [2]: 1.41 µM
- IC50 [3]: 0.89 µM
- IC50 [4]: 0.56 µM
- IC50 [5]: 1.12 µM
- IC50 [6]: 1.32 µM
- IC50 [7]: 0.89 µM

Structure (SMILES): Cc1cc(N)c2ccccc2[n+]1CCCCCCCCCC[n+]1c(C)cc(N)c2ccccc21 [DEQUALINIUM CHLORIDE]
- IC50 [5]: 0.1 µM
- IC50 [7]: 0.1 µM

Structure (SMILES): CN1C[C@H](C(=O)N[C@]2(C)O[C@@]3(O)[C@@H]4CCCN4C(=O)[C@H](Cc4ccccc4)N3C2=O)C[C@@H]2c3cccc4[nH]cc(c34)C[C@H]21 (stereo in doubt; 1) [DIHYDROERGOTAMINE MESYLATE]
- IC50 [8]: 0.022 µM

Structure (SMILES): CCCNC[C@H](O)COc1ccccc1C(=O)CCc1ccccc1
- IC50 [4]: 0.28 µM

Structure (SMILES): Nc1nc(N)c2nc(-c3ccccc3)c(N)nc2n1
- IC50 [2]: 51.7 µM
- IC50 [9]: 17.1 µM
- IC50 [10]: 4 µM
- IC50 [11]: 95 µM
- IC50 [12]: 141 µM
- IC50 [13]: 95 µM
- IC50 [14]: 154 µM
- IC50 [15]: 70 µM
- IC50 [16]: 176 µM
- IC50 [17]: 4.26 µM
- IC50 [18]: 5.11 µM
- IC50 [19]: 8.13 µM
- IC50 [20]: 60.4 µM
- IC50 [21]: 44.6 µM
- IC50 [22]: 60.5 µM
- IC50 [23]: 5.3 µM
- IC50 [24]: 56.3 µM
- IC50 [25]: 73.5 µM
- IC50 [26]: 59.8 µM
- IC50 [27]: 57 µM
- IC50 [28]: 43.7 µM
- IC50 [29]: 54.2 µM
- IC50 [30]: 81.8 µM
- IC50 [31]: 8.82 µM
- IC50 [32]: 15 µM
- IC50 [33]: 11.2 µM
- IC50 [34]: 65.1 µM
- IC50 [35]: 22.2 µM
- IC50 [36]: 18.1 µM
- IC50 [37]: 50.1 µM
- IC50 [38]: 64.8 µM
- IC50 [39]: 5.59 µM
- IC50 [40]: 5.19 µM
- IC50 [41]: 3.29 µM
- IC50 [42]: 75.1 µM
- IC50 [43]: 3.54 µM
- IC50 [44]: 5.83 µM
- IC50 [45]: 17.1 µM
- IC50 [46]: 69.5 µM
- IC50 [47]: 49.4 µM
- IC50 [48]: 52.5 µM

Structure (SMILES): Nc1ccc(-c2nc3ccc(-c4nc5ccc(N)cc5[nH]4)cc3[nH]2)cc1
- IC50 [1]: 0.28 µM
- IC50 [2]: 0.52 µM
- IC50 [3]: 0.74 µM
- IC50 [4]: 0.22 µM
- IC50 [5]: 0.74 µM
- IC50 [6]: 1 µM
- IC50 [7]: 0.83 µM

Structure (SMILES): COc1cc(Cc2cnc(N)nc2N)cc(OC)c1OC [TRIMETHOPRIM]
- IC50 [11]: 117 µM
- IC50 [12]: 169 µM
- IC50 [14]: 194 µM
- IC50 [16]: 158 µM
- IC50 [23]: 4.1 µM

Structure (SMILES): CCN(CC)CCNC(=O)c1cc(Cl)c(N)cc1OC.Cl
- pIC25 [4]: 4.9
